# Laboratory results: US9546144B2, “Bifunctional compounds” (University of Pittsburgh—of the Commonwealth System of …, priority 2011, dated 2017)
# Columns and labels:
# 32D cl 3 cells = experiment: irradiated 32D cl 3 cells, cell number and viability; assay type: cell-based; settings: 10 μM, 0-7 Gy, Day 3 or 5 after irradiation
# Description: FIG. 10. The data are from a screening experiment where 32D cl 3 cells were irradiated to doses of 0, 1, 3, 5, or 7 Gy and placed in T25 flasks. Either JP4-039 or MM350 were added at 10 μM and incubated in a CO2 incubator at 37° C. At Day 3 or 5 after irradiation, the cells were counted and the viability determined.
# Brine shrimp = experiment: brine shrimp toxicity assay; assay type: in vivo; settings: concentrations up to 20 mg/mL
# Description: General procedure for brine shrimp toxicity assays. Sample preparation. Stock solutions of 3 were prepared by dissolving 3 (50.0 mg) in 5.0 HPLC grade water (5.0 mL), (solution A) and 3 (2.50 g) in HPLC grade water (10.0 mL) (solution B). Stock solutions of DMSO were prepared by diluting DMSO (45 μL) with HPLC grade water (5.0 mL) (solution C) and DMSO (2.27 mL) with HPLC grade water (10.0 mL) (solution D).
# In each case, 5 replicates were performed. Each replicate was performed in a 2 dram vial marked at the 4 and 5 mL volume points. To each vial was added artificial sea water (3 mL) followed by the appropriate volume of stock solution. For set 1 (1.0 mg/mL), solution A (0.500 mL) or solution C (0.500 mL) was added. For set 2 (5.0 mg/mL), solution B (0.100 mL) or solution D (0.100 mL) was added to each vial. For set 3 (20.0 mg/mL), solution B (0.400 mL) or solution D (0.400 mL) was added to each vial. For set 4 (50.0 mg/mL), solution B (1.00 mL) or solution D (1.00 mL) was added to each vial. […]
# Brine shrimp eggs (San Francisco Bay Brand) were hatched in a commercial salt mixture (Instant Ocean). […] The shrimp were counted at t=24 h. Another drop of freshly prepared yeast solution (6 mg in 10 mL sea water) was added, the vials were maintained under illumination, and shrimp were counted at t=48 h. […]
# C57BL/6NTac mice = experiment: radiation pulmonary fibrosis and survival after 20 Gy thoracic irradiation; assay type: in vivo, mouse; settings: in drinking water
# Excerpt: FIG. 23. MMS350 in drinking water decreases fibrosis in the lungs of thoracic irradiated (20 Gy) mice.
# For lung irradiation, mice were irradiated to the thoracic cavity with shielding of the head and neck region and abdomen and lower body according to published methods. Animals received 20 Gy single fraction thoracic irradiation and were then maintained according to IACUC directed laboratory conditions. Mice were sacrificed at serial time points after thoracic irradiation including pre-irradiation, days 2, 7, 14, 28, 50, 75, 100, 110, 150 and 200 post-irradiation. Lungs were removed and sagittal sections assayed for percent of lung replaced by fibroblasts and organizing alveolitis according to published methods.
# Lungs from irradiated and luc+ cell line injected mice were removed and serial sectioned. Sections were stained for luc+, GFP+ cells, BrdU incorporation, and for quantitation of percent lung replaced by fibrosis (organizing alveolitis) according to published methods.
# Mice were injected intra-peritoneally with MMS350 or JP4-039 (GS-nitroxide) in 50% cremphor/50% ethanol according to published methods. For long-term administration of MMS350, the drug was administered in water bottles with bottles changed every 7 days. The dose of drug per bottle was 100 μM MMS350 starting on day 88. […]
# [1] = test system: bone marrow stromal cell line derived from C57BL/6NTac mice; experiment: in vitro clonogenic radiation survival curves; assay type: cell-based, mouse; settings: 100 μM added 10 min after irradiation; control 1.9±0.1, p=0.0444
# Description: FIG. 12. In vitro radioprotection and mitigation of bone marrow stromal cells. In vitro survival curves were performed using a bone marrow stromal cell line derived from C57BL/6NTac mice. Cells were incubated in 100 μM MMS350 for one hour before irradiation or was added to the cells 10 min after irradiation. Cells were irradiated to doses ranging from 0 to 8 Gy, plated in 4 well tissue culture plates, incubated for 7 days at 37° C. in a humidified CO2 incubator, and stained with crystal violet. Colonies of greater than 50 cells were counted and analyzed using a linear quadratic model or single-hit, multi-target model.
# The murine C57BL/6 bone marrow stromal cell line (Epperly M W, Sikora C A, Defilippi S, Gretton J E, Greenberger J S. Bone marrow origin of myofibroblasts in irradiation pulmonary fibrosis. Am J Resp Molecular Cell Biology 2003; 29:213-224) and its use in clonogenic radiation survival curves has been described (Epperly M W, Gretton J E, Bernarding M, Nie S, Rasul B, Greenberger J S. Mitochondrial localization of copper/zinc superoxide dismutase (Cu/ZnSOD) confers radioprotective functions in vitro and in vivo. Radiation Research 2003; 160:568-578).
# Cell lines were irradiated at dose rate of 70 cGy per minute using a Cesium Gamma Cell Irradiator according to published methods. […]
compound,measurement,setting,value
"CC1(C[S+]([O-])CC2(C)COC2)COC1 [compound 3, 3,3′-Sulfinylbis(methylene)bis(3-methyloxetane)]",number of cells and viability after irradiation,32D cl 3 cells,comparable to JP4-039
same,mortality after 48 h,Brine shrimp,< 10%
same,survival of thoracic irradiated mice,C57BL/6NTac mice,significantly increased survival
same,D0 of the survival curve,[1],2.4±0.3
